Data reported in patent publication US20070172933A1, “Thermally stable amidases” (priority 2003, published 2007).
Like-named read-outs stand apart in the source and are kept apart here.

Assays:
amidase [1] = experiment: Substrate specificity of the isolated amidase (hydrolysis assay); assay type: biochemical, Pseudonocardia thermophila
Procedure: (§1) To carry out the hydrolysis assay, where not mentioned otherwise, use was made of a 5 mM benzamide solution in 500 μl of a 60 mM K-Na phosphate buffer, pH 7.2. The enzymatic reaction proceeded for one hour at 70° C. with addition of 5 μg of the enzyme. The reaction was stopped by cooling the reaction solution on ice. […] One unit (U) of amidase activity is defined as the amount of enzyme which catalyzes the formation of 1 μmol of benzoic acid per minute.
The substrate specificity of the amidase was tested at three different temperatures taking into account the substrate used in each case. For hydrolysis of amino acid amides, the reaction mixture was reacted for 3 h at 30° C., in the case of the aliphatic and cyclic amides 1 h at 50° C., and for aromatic amide substrates 1 h at 70° C. The enzymatic activity was then determined as described above. The control used was each batch without enzyme.

amidase [2] = experiment: Enantioselectivity of the isolated amidase, chiral HPLC; assay type: biochemical, Pseudonocardia thermophila; details: 70° C.
Procedure: For this, 10 μg of the purified amidase were incubated with a 5 mM racemic 2-phenylpropionamide solution for 3 h at 70° C., the end volume of the reaction batch being 500 μl. At 30-minute intervals, samples were taken from the reaction batch and analyzed by an HPLC measurement.
The product determination and quantification of the R-and S-stereoisomers of the 2-phenylpropionamide were determined by injecting defined amounts of the corresponding pure substances as standard. The enantiomeric excess (ee) was calculated on the basis of the peak area ratio obtained by the chirar HPLC measurement (ee^p=(S−R)/(S+R); ee^p (%)=(S−R)/(S+R) ×100; where p=product).
For the HPLC measurements, a chiral Chirobiotic T column (Astec, Whippany, USA) was used. The solvent used was ethanol and 20 mM potassium phosphate buffer, pH 7.2, having a volumetric ratio of 20:80. The elution was performed at room temperature using a flow rate of 0.8 ml min^−1. Detection was performed at a wavelength of 210 nm. The amfmonia concentration was studied using the phenol hypochloride method using the ammonia kit Spectroquant 114752 (Merck, Germany), the amount of ammonia released being determined spectrometrically using ammonium chloride as standard.

amidase [3] = experiment: Effect of metals and inhibitors (reagents and ions) on amidase activity, benzamide hydrolysis; assay type: biochemical, Pseudonocardia thermophila; details: for Amidase activity in %: reagent 1 mM, preincubated 1 h at 22° C., benzamide, 1 h at 70° C.
Procedure: as §1
To study the effect of certain reagents and ions on amidase activity, a solution containing 5 μg of amidase and the reagent or ion was preincubated for 1 h at 22° C. in 50 mM phosphate buffer. A 5 mM solution of benzamide in 50 mM phosphate buffer was then added until the end concentration of the reagent in the reaction batch was 1 mM. The reaction was performed for 1 h at 70° C. The catalytic activity was determined as described above.

[4] = Determination of the isoelectric point by isoelectric focusing; assay type: physicochemical, Pseudonocardia thermophila
Procedure: The isoelectric point was determined by means of isoelectric focusing using a Novex polyacrylamide gel (pH .3-10) and using a Novex electrophoresis chamber in accordance with the manufacturer's instructions (Novex, Invitrogen, Netherlands). The isoelectric point of the purified amidase was determined at pH 4.2.

[5] = assay type: physicochemical, Pseudonocardia thermophila; details: pH 7.2
Procedure: In addition, the temperature stability of the enzymes was studied between 50° C. and 80° C. over a relatively long period. […] (middle curve, FIG. 5).

[6] = Hydrolysis assay, specific activity of the purified amidase; assay type: biochemical, Pseudonocardia thermophila; details: benzamide as substrate, after purification
Procedure: To carry out the hydrolysis assay, where not mentioned otherwise, use was made of a 5 mM benzamide solution in 500 μl of a 60 mM K-Na phosphate buffer, pH 7.2. The enzymatic reaction proceeded for one hour at 70° C. with addition of 5 μg of the enzyme. The reaction was stopped by cooling the reaction solution on ice. The concentration of the products obtained enzymatically (benzoic acid and ammonia) was determined by means of HPLC and spectrometrically, using the ammonia kit Spectroquant 114752 (Merck, Germany). One unit (U) of amidase activity is defined as the amount of enzyme which catalyzes the formation of 1 μmol of benzoic acid per minute.

[7] = Aliphatic amides, 1 h at 50° C.
[8] = Amino acid amides, 3 h at 30° C.
[9] = Heterocycles, temperature for this group not stated clearly

CC(O)C(N)=O (racemic) [DL-lactamide]
Specific activity (amidase [1]; [7]): 18.9 µmol/min/mg

NC(=O)c1ccccc1N [2-aminobenzamide]
Specific activity (amidase [1]; Aromatic amides, 1 h at 70° C.): 3.4 µmol/min/mg

CSCCC(O)C(N)=O (stereo not drawn) [2-hydroxy-4-(methylthio)butyramide]
Specific activity (amidase [1]; [8]): 5.7 µmol/min/mg

CC(C(N)=O)c1ccccc1 (stereo not drawn) [2-phenylpropionamide]
Specific activity (amidase [1]; Aromatic amides, 1 h at 70° C.): 15.8 µmol/min/mg | conversion (amidase [2]; 5 mM racemic substrate, after 60 minutes): 50% | enantiomeric excess ee^p (amidase [2]; 5 mM racemic substrate, after 60 minutes, S-enantiomer product): greater than 95% | enantioselectivity of the purified amidase for the substrate (amidase [2]; racemic substrate): highly S-selective

NC(=O)Cc1c[nH]c2ccccc12 [3-indolylacetamide]
Specific activity (amidase [1]; Aromatic amides, 1 h at 70° C.): 7.56 µmol/min/mg

NC(=O)c1ccc(N)cc1 [4-aminobenzamide]
Specific activity (amidase [1]; Aromatic amides, 1 h at 70° C.): 6.5 µmol/min/mg

[Ba+2] [Ba^2+]
Amidase activity in % (amidase [3]): 87%

[Ca+2] [Ca^2+]
Amidase activity in % (amidase [3]): 85%

[Co+2] [Co^2+]
Amidase activity in % (amidase [3]): 0%

[Cu+2] [Cu^2+]
Amidase activity in % (amidase [3]): 26%

O[C@@H](CS)[C@@H](O)CS [DTT]
sensitivity of the amidases to the reagent (in words) (amidase [3]): increased | Amidase activity in % (amidase [3]): 120%

O=C(O)CN(CCN(CC(=O)O)CC(=O)O)CC(=O)O [EDTA]
sensitivity of the amidases to the reagent (in words) (amidase [3]): insensitive | Amidase activity in % (amidase [3]): 100%

C[C@H](N)C(N)=O [L-alaninamide]
Specific activity (amidase [1]; [8]): 10.5 µmol/min/mg

CC(C)C[C@H](N)C(N)=O [L-leucinamide]
Specific activity (amidase [1]; [8]): 10.8 µmol/min/mg

CSCC[C@H](N)C(N)=O [L-methioninamide]
Specific activity (amidase [1]; [8]): 14.4 µmol/min/mg

NC(=O)[C@@H]1CCCN1 [L-prolinamide]
Specific activity (amidase [1]; [8]): 13.0 µmol/min/mg

CC(C)(C)[C@H](N)C(N)=O [L-tert-leucinamide]
Specific activity (amidase [1]; [8]): 0.08 µmol/min/mg

NC(=O)[C@@H](N)Cc1c[nH]c2ccccc12 [L-tryptophanamide]
Specific activity (amidase [1]; [8]): 10.3 µmol/min/mg

CC(C)[C@H](N)C(N)=O [L-valinamide]
Specific activity (amidase [1]; [8]): 13.0 µmol/min/mg

[Mg+2] [Mg^2+]
Amidase activity in % (amidase [3]): 90%

[Mn+2] [Mn^2+]
Amidase activity in % (amidase [3]): 98%

[Ni+2] [Ni^2+]
Amidase activity in % (amidase [3]): 42%

CCCCCCCCCCCCOS(=O)(=O)[O-].[Na+] [SDS]
sensitivity of the amidases to the reagent (in words) (amidase [3]): insensitive | Amidase activity in % (amidase [3]): 100%

[Zn+2] [Zn^2+]
Amidase activity in % (amidase [3]): 93%

CC(N)=O [acetamide]
Specific activity (amidase [1]; [7]): 15.7 µmol/min/mg

NC(=O)CCCCC(N)=O [adipamide]
Specific activity (amidase [1]; [7]): 12.0 µmol/min/mg

NC(=O)c1ccccc1 [benzamide]
Specific activity (amidase [1]; Aromatic amides, 1 h at 70° C.): 19.4 µmol/min/mg

NC=O [formamide]
Specific activity (amidase [1]; [7]): 9.2 µmol/min/mg

CCCCCC(N)=O [hexanoamide]
Specific activity (amidase [1]; [7]): 9.3 µmol/min/mg

NC(=O)CI [iodoacetamide]
Amidase activity in % (amidase [3]): 90%

O=C(O)CI [iodoacetate]
Amidase activity in % (amidase [3]): 22%

CC(C)C(N)=O [isobutyramide]
Specific activity (amidase [1]; [7]): 13.5 µmol/min/mg

NC(=O)c1ccncc1 [isonicotinamide]
Specific activity (amidase [1]; [9]): 7.1 µmol/min/mg

NC(=O)CC(N)=O [malonamide]
Specific activity (amidase [1]; [7]): 7.4 µmol/min/mg

C=C(C)C(N)=O [methacrylamide]
Specific activity (amidase [1]; [7]): 23.5 µmol/min/mg

NC(=O)c1cccnc1 [nicotinamide]
Specific activity (amidase [1]; [9]): 11.6 µmol/min/mg

NC(=O)c1ccccc1O [o-hydroxybenzamide]
Specific activity (amidase [1]; Aromatic amides, 1 h at 70° C.): 7.4 µmol/min/mg

CC(C)(C)C(N)=O [pivalamide]
Specific activity (amidase [1]; [7]): 14.9 µmol/min/mg

CCC(N)=O [propionamide]
Specific activity (amidase [1]; [7]): 25.4 µmol/min/mg

NC(=O)c1cnccn1 [pyrazinamide]
Specific activity (amidase [1]; [9]): 11.2 µmol/min/mg

NC(=O)CCC(N)=O [succinamide]
Specific activity (amidase [1]; [7]): 4.0 µmol/min/mg

NC(N)=O [urea]
Specific activity (amidase [1]; [7]): 17.5 µmol/min/mg

Triton X-100
sensitivity of the amidases to the reagent (in words) (amidase [3]): insensitive | Amidase activity in % (amidase [3]): 100%

m-tolylamide
Specific activity (amidase [1]): 12.7 µmol/min/mg

p-tolylamide
Specific activity (amidase [1]; Aromatic amides, 1 h at 70° C.): 13.1 µmol/min/mg

B1: amidase: thermally stable amidase purified from Pseudonocardia thermophila (DSMZ 43832); SEQ ID No. 1, 2, 3 (protein, listed as Pseudonocardia thermophila)
chain 1: IHMPDPDAV
chain 2: DGLPVGLMIVGKHF
chain 3: MIHMPDPDAVARMAAEGRFGIPVVVICRTYHDLGHRPARLVEQGRRAVRGGGPHPAAALVDPPRRRGRQARRVGGADLDHRNLGGAARRPHGRGQDNVAVAGVPMMNGSRTLEGFVPAEDATVVSRLLAAGATIAGKSVCEDLCFSGGSHTSKPGTVHNPWDMSRSAGGSSSGSGALVAAGEVDMAIGGDQGGSIRIPSAYCGTVGHKPTHGLVPYTGGFPIEQSIDHLGPITRTVADAALMLSVIAGRDGLDPRQPDVVEVQDYVGALAESVSGLRIGVLQEGFGHPNSEPEVDDTVRAAVGTLREAGFTVEDVSVPWHLHATAIWDVLATEGGLWQMVEGNAYGMHWKGHYDPSLIAYYGRKWREDPAQFSETVKLVALAGRYALTTQYGRHYAMARNLAPKLVAAYDAALSNYDVLVMPTLPMRATVLPGPDAPVEEILARGLEMLANTAPFDVTGHPACSVPAGLADGLPVGLMIVGKHFDDATVLKVANAFEQAVGGFPTPAAZ
Substrate specificity (amides) (amidase [1]; Table 4, inventive amidase): Al, Ar, Cy, As | isoelectric point ([4]; Novex polyacrylamide gel): 4.2 pH | IEF point pH ([4]; Table 4, inventive amidase): 4.2 pH | enzymatic activity over time (thermal stability) [5]: decreases rapidly | Specific activity [6]: 19.5 U/mg of protein
